Results taken from patent publication US6395473B1, “Adenoviral based promoter assay” (Merck & Co., Inc., priority 1998, dated 2002).

Test system: rat glutathione S-transferase Ya subunit promoter
Test: CAT reporter activity induction in HepG2 cells carrying the rat GST Ya promoter/CAT construct
Format: cell-based
Settings: HepG2 cells infected with pdelE1sp1B-1.6CAT, a-NF 50 mM
Excerpt: DNA coding for a promoter/reporter rat glutathione S-transferase Ya subunit 1.6 kb promoter sequence positioned upstream of the chloramphenicol acetyltransferase reporter gene was cloned into the adenovirus shuttle vector pdelE1sp1B, whereby the E1B genome of the adenovirus is deleted and replaced. Successful construction of the shuttle vector, pdelE1sp1B-1.6CAT was verified by both restriction mapping and by sequencing across the 5′- and 3′-ends of the cloning sites. In addition, the shuttle vector was tested functionally in HepG2 cells for regulation of expression of CAT by a-napthoflavone ([…]).
HepG2 cells were seeded in 12- or 24-well plates at a density of 60-70% confluence. Cells were infected the following day with Ad1.6CAT (9.7×10^8 pfu/ml) at an MOI of 5 for 1 h. At the end of the infection period the virus was removed, the cells were rinsed once with PBS, and fresh media was placed on the cells. […]
HepG2 cells were harvested at various time points following induction of CAT expression. […] CAT activity determined by the method of Gorman et al. using 10 ug of protein for 60 minute at 37° C. Acetylated products of chloramphenicol were extracted with mixed xylenes and quantitated by liquid scintillation counting. Results were expressed as fold induction versus control.

With O=c1cc(-c2ccccc2)oc2c1ccc1ccccc12 [a-NF, a-napthoflavone] the “Induction of CAT activity (fold induction versus control)” value (after 24 hours) was “approximately 45 fold” and the “Induction of CAT activity (fold induction versus control)” value (after 48 hours) was “approximately 85 fold”.
